Data: PubChem BioAssay AID248 (DTP/NCI, 2004)
Values joined by “and” are separate entries in the source; they are usually repeats but may differ in a detail not shown here. Equal entries are not always repeated. Toxic doses and inconclusive results are not listed. Cut-off read from the data, not from the text of the source: active = T/C of 150% or more; inactive = T/C below 125%.

Test system: L1210 leukemia ip in BDF1 mice, survival T/C
Experiment: NCI In Vivo Anticancer Drug Screen. Data for tumor model L1210 Leukemia (intraperitoneal) in B6D2F1 (BDF1) mice
Details: endpoint: mean survival time, higher = longer survival
How it was run: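 Antitumor effect is assessed in tumor-bearing animals. Survival in the compound arm is compared with a vehicle-dosed control arm and expressed as their quotient.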

[1] = dose: 50.0 mg/kg/injection, schedule: Q01DX009 (ip), vehicle: saline with Tween-80
[2] = dose: 100.0 mg/kg/injection, schedule: Q01DX009 (ip), vehicle: saline with Tween-80
[3] = dose: 200.0 mg/kg/injection, schedule: Q01DX009 (ip), vehicle: saline with Tween-80
[4] = dose: 100.0 mg/kg/injection, schedule: Q01DX001 (ip), vehicle: carboxymethylcellulose (CMC)
[5] = dose: 200.0 mg/kg/injection, schedule: Q01DX001 (ip), vehicle: carboxymethylcellulose (CMC)
[6] = dose: 25.0 mg/kg/injection, schedule: Q01DX009 (ip), vehicle: Klucel (hydroxypropylcellulose) (HPC)
[7] = dose: 50.0 mg/kg/injection, schedule: Q01DX009 (ip), vehicle: Klucel (hydroxypropylcellulose) (HPC)
[8] = dose: 100.0 mg/kg/injection, schedule: Q01DX009 (ip), vehicle: Klucel (hydroxypropylcellulose) (HPC)
[9] = dose: 100.0 mg/kg/injection, schedule: Q04DX003 (ip), vehicle: Klucel (hydroxypropylcellulose) (HPC)
[10] = dose: 200.0 mg/kg/injection, schedule: Q04DX003 (ip), vehicle: Klucel (hydroxypropylcellulose) (HPC)
[11] = dose: 12.5 mg/kg/injection, schedule: Q01DX009 (ip), vehicle: saline
[12] = dose: 25.0 mg/kg/injection, schedule: Q01DX009 (ip), vehicle: saline
[13] = dose: 25.0 mg/kg/injection, schedule: Q04DX003 (ip), vehicle: saline
[14] = dose: 50.0 mg/kg/injection, schedule: Q01DX009 (ip), vehicle: saline
[15] = dose: 50.0 mg/kg/injection, schedule: Q04DX003 (ip), vehicle: saline
[16] = dose: 100.0 mg/kg/injection, schedule: Q01DX009 (ip), vehicle: saline
[17] = dose: 200.0 mg/kg/injection, schedule: Q01DX009 (ip), vehicle: saline
[18] = dose: 100.0 mg/kg/injection, schedule: Q04DX003 (ip), vehicle: saline

Measured: T/C

O=C(OCc1ccccc1)C1CCCN1 (configuration not stated)
inactive: dose: 25.0 mg/kg/injection, schedule: Q01DX009 (ip), vehicle: water 104 % of control | dose: 25.0 mg/kg/injection, schedule: Q04DX003 (ip), vehicle: water 109 % of control | dose: 50.0 mg/kg/injection, schedule: Q01DX009 (ip), vehicle: water 97 % of control | dose: 50.0 mg/kg/injection, schedule: Q04DX003 (ip), vehicle: water 96 % of control | dose: 100.0 mg/kg/injection, schedule: Q01DX009 (ip), vehicle: water 97 % of control | dose: 100.0 mg/kg/injection, schedule: Q04DX002 (ip), vehicle: saline 100 % of control | dose: 100.0 mg/kg/injection, schedule: Q04DX003 (ip), vehicle: water 102 % of control | dose: 200.0 mg/kg/injection, schedule: Q01DX009 (ip), vehicle: water 102 % of control | dose: 200.0 mg/kg/injection, schedule: Q04DX002 (ip), vehicle: saline 96 % of control | dose: 200.0 mg/kg/injection, schedule: Q04DX003 (ip), vehicle: water 102 % of control | dose: 400.0 mg/kg/injection, schedule: Q01DX009 (ip), vehicle: water 103 % of control | dose: 400.0 mg/kg/injection, schedule: Q04DX003 (ip), vehicle: water 109 % of control

O=C(Nc1cccc(C(F)(F)F)c1)Nc1ccc([N+](=O)[O-])cc1Cl
inactive: dose: 100.0 mg/kg/injection, schedule: Q01DX009 (ip), vehicle: gum acacia 88 % of control | dose: 200.0 mg/kg/injection, schedule: Q01DX009 (ip), vehicle: gum acacia 97 % of control | dose: 400.0 mg/kg/injection, schedule: Q01DX009 (ip), vehicle: gum acacia 96 % of control

CC(=O)Nc1ccc2c(c1)C(=O)c1cc(NC(C)=O)ccc1-2
inactive: [1] 95 % of control | [2] 95 % of control | dose: 100.0 mg/kg/injection, schedule: Q04DX003 (ip), vehicle: saline with Tween-80 92 % of control | [3] 101 % of control | dose: 200.0 mg/kg/injection, schedule: Q04DX003 (ip), vehicle: saline with Tween-80 86 % of control | dose: 400.0 mg/kg/injection, schedule: Q04DX003 (ip), vehicle: saline with Tween-80 89 % of control

OCC(O)C(O)/C=N/Nc1cc(Cl)ccc1Cl (configuration not stated)
inactive: dose: 50.0 mg/kg/injection, schedule: Q01DX001 (ip), vehicle: carboxymethylcellulose (CMC) 90 % of control | [4] 104 % of control | [5] 95 % of control

Cc1cc([N+](=O)[O-])c([N+](=O)[O-])cc1Cl
inactive: [1] 115 % of control | dose: 100.0 mg/kg/injection, schedule: Q01DX001 (ip), vehicle: Klucel (hydroxypropylcellulose) (HPC) 105 % of control | [2] 115 % of control | dose: 200.0 mg/kg/injection, schedule: Q01DX001 (ip), vehicle: Klucel (hydroxypropylcellulose) (HPC) 115 % of control | [3] 109 % of control

O=C(COc1ccc(Cl)cc1Cl)Nc1cc(C(F)(F)F)ccc1Cl
inactive: dose: 50.0 mg/kg/injection, schedule: Q01DX001 (ip), vehicle: other 96 % of control | dose: 100.0 mg/kg/injection, schedule: Q01DX001 (ip), vehicle: other 107 % of control | dose: 100.0 mg/kg/injection, schedule: Q04DX002 (ip), vehicle: gum acacia 118 % of control | dose: 200.0 mg/kg/injection, schedule: Q01DX001 (ip), vehicle: other 89 % of control | dose: 200.0 mg/kg/injection, schedule: Q04DX002 (ip), vehicle: gum acacia 91 % of control | dose: 400.0 mg/kg/injection, schedule: Q01DX001 (ip), vehicle: other 94 % of control | dose: 400.0 mg/kg/injection, schedule: Q04DX002 (ip), vehicle: gum acacia 103 % of control

CC1CC(NC(=S)S)CC(C)(C)C1 (configuration not stated)
inactive: [6] 93 % of control | [7] 95 % of control | [8] 97 % of control | [9] 93 % of control | [10] 96 % of control

CS(=O)(=O)Oc1ccc2cc(Br)ccc2c1
inactive: [4] 102 % of control | [5] 100 % of control | dose: 400.0 mg/kg/injection, schedule: Q01DX001 (ip), vehicle: carboxymethylcellulose (CMC) 107 % of control

C1CC2CCC[N+]3=C2C(C1)CCC3 (configuration not stated)
inactive: dose: 12.0 mg/kg/injection, schedule: Q04DX003 (ip), vehicle: saline 93 % of control | [11] 97 % of control | [12] 101 % of control | [13] 91 % of control | [14] 101 % of control | [15] 101 % of control

O=c1[nH]c(=O)c2[nH]cnc2[nH]1
inactive: [1] 100 % of control | [2] 94 % of control | [3] 90 % of control

Cc1cc(C)c(NC(=O)NC2CCCCC2)cc1C
inactive: dose: 100.0 mg/kg/injection, schedule: Q04DX002 (ip), vehicle: Klucel (hydroxypropylcellulose) (HPC) 105 % of control | dose: 200.0 mg/kg/injection, schedule: Q04DX002 (ip), vehicle: Klucel (hydroxypropylcellulose) (HPC) 94 % of control | dose: 400.0 mg/kg/injection, schedule: Q04DX002 (ip), vehicle: Klucel (hydroxypropylcellulose) (HPC) 94 % of control

CCc1ccccc1NC(=O)Nc1ccccc1OC
inactive: [8] 92 % of control | [9] 93 % of control | dose: 200.0 mg/kg/injection, schedule: Q01DX009 (ip), vehicle: Klucel (hydroxypropylcellulose) (HPC) 94 % of control | [10] 93 % of control | dose: 400.0 mg/kg/injection, schedule: Q01DX009 (ip), vehicle: Klucel (hydroxypropylcellulose) (HPC) 100 % of control | dose: 400.0 mg/kg/injection, schedule: Q04DX003 (ip), vehicle: Klucel (hydroxypropylcellulose) (HPC) 90 % of control

COCc1c(C)[nH]c2ccc(N(C)C)cc2c1=O
inactive: [2] 97 % of control | [3] 103 % of control | dose: 400.0 mg/kg/injection, schedule: Q01DX009 (ip), vehicle: saline with Tween-80 105 % of control

[CH3][Sn]([CH3])([CH3])[CH2][Sn]([CH3])([CH3])[CH3]
inactive: [14] 101 % of control | [16] 93 % of control and 103 % of control | [17] 98 % of control

Cc1cc(C)c2ccc(Cl)nc2n1
inactive: [6] 97 % of control | [7] 99 % of control

O=C1CC(=O)Nc2ccccc2N1
inactive: [14] 86 % of control | [16] 86 % of control | [18] 98 % of control | [17] 96 % of control | dose: 200.0 mg/kg/injection, schedule: Q04DX003 (ip), vehicle: saline 101 % of control | dose: 400.0 mg/kg/injection, schedule: Q04DX003 (ip), vehicle: saline 101 % of control

CN(C)CCCN1c2ccccc2Sc2c(Cl)cc(Cl)cc21
inactive: dose: 6.25 mg/kg/injection, schedule: Q01DX009 (ip), vehicle: saline 97 % of control | [11] 103 % of control | [12] 101 % of control | [13] 94 % of control | [14] 104 % of control | [15] 113 % of control | [18] 118 % of control

C/C(=C\Br)OC1CCCCO1 (configuration not stated)
inactive: dose: 100.0 mg/kg/injection, schedule: Q01DX009 (ip), vehicle: acetone 96 % of control | dose: 200.0 mg/kg/injection, schedule: Q01DX009 (ip), vehicle: acetone 96 % of control | dose: 400.0 mg/kg/injection, schedule: Q01DX009 (ip), vehicle: acetone 92 % of control

NC(=O)C1CCCN1Cc1ccc2c(c1)OCO2 (configuration not stated)
inactive: dose: 100.0 mg/kg/injection, schedule: Q01DX001 (ip), vehicle: saline 97 % of control | dose: 200.0 mg/kg/injection, schedule: Q01DX001 (ip), vehicle: saline 94 % of control | dose: 400.0 mg/kg/injection, schedule: Q01DX001 (ip), vehicle: saline 94 % of control

O=[N+]([O-])c1ccc(OP(=O)(Oc2ccc([N+](=O)[O-])cc2)Oc2ccc([N+](=O)[O-])cc2)cc1
inactive: dose: 100.0 mg/kg/injection, schedule: Q04DX003 (ip), vehicle: gum acacia 97 % of control and 107 % of control | dose: 200.0 mg/kg/injection, schedule: Q04DX003 (ip), vehicle: gum acacia 92 % of control and 103 % of control | dose: 400.0 mg/kg/injection, schedule: Q04DX003 (ip), vehicle: gum acacia 94 % of control and 95 % of control
